Data from US20080286349A1, “SYSTEMS, DEVICES, AND METHODS FOR PASSIVE TRANSDERMAL DELIVERY OF ACTIVE AGENTS TO A BIOLOGICAL INTERFACE” (priority 2007, published 2008).
Where a name gives a salt, the structure may show the parent alone.

How the values were obtained:
[1] = Membrane potential measurement across skin in H-shaped Franz cell; ion mobility relative to chloride; format: physicochemical, mouse; details: Cl− = 1
Description: The electric potential difference shown here is between the outside and the inside of the skin. The “+/−” notation is opposite to that shown in Equation 12. […] These values have been used to make calculations.

[2] = Computed membrane potential and ion flux (Eq. 11 Goldman equation, Eq. 12); details: relative to Cl−
Description: Further, it is necessary to linearly approximate the concentration gradient or the electric potential gradient to solve equation 9. […] The potential difference across the skin has been considered for a single component system. […] Thus, a film potential can be calculated provided that the ion mobility (omega) and concentration (c) within the skin are known. The ion transport speed can then be found from the calculated film potential.

[3] = Delivery of aqueous drug solutions through skin in Franz cell (amount over time, flux); details: for experimental Flux J: 1.0% Diclofenac
Description: An H-shaped Franz cell (FIG. 7) was used to evaluate the theory described herein. As shown, the Franz cell 28 includes a donor chamber 30a and a receiver chamber 30b. The donor chamber 30a contains an ionic active agent, which permeates through a membrane 32 to reach the receiver chamber 30b. A working electrode 34a was inserted in the donor chamber 30a, while a counter electrode 34b (i.e., reference electrode) was inserted in the receptor chamber 30b. It is possible to measure the electrical potential difference induced by the ionic diffusion/permeation and the concentration gradient thus established. […]

[4] = Example 1: Procaterol HCl solutions, Franz cell at 32° C.; format: in vitro ADME, mouse; parameters: unit not given here
Procedure: Typically, 17 ml of phosphate buffered saline (PBS, sold by Wako Pure Chemical Industries) was injected into the receptor cell, and a 10 mm stirring bar was used to agitate the solution during the test. The Franz cell was placed in an incubator (made by ESPEC, model LH-113) with the temperature set to 32° C. and the humidity set to 70%. Samples were typically extracted from the cell at predetermined times using a 200 μl Gilson Pipetman. 200 μl of PBS was then added to the cell after each sampling operation.
For measuring the active agent (e.g., Procaterol cation) permeated, a standard solution with known concentration can be prepared and compared with the concentration measured. Using Procaterol HCl as an example, 50 mg of Procaterol HCl (97.25% anhydrous) was accurately measured out, and then added to water to form 50 ml of solution (“Procaterol concentrate liquid”). The standard concentrate was then diluted (“Procaterol standard solution”) and used as a mobile phase for high performance (or pressure) liquid chromatography (HPLC). The Procaterol concentrate liquid was sealed in a light shielding bottle and stored in a refrigerator. 10 μl of each test sample and 10 μl of the standard solution was measured using HPLC, and Procaterol peak areas At (test samples) and As (standard solution) were determined for each sample. Procaterol HCl masses were then found for each test sample using the following equation: […]
In Example 1, before testing the delivery device 10, sixteen tests were performed at four different agent concentrations (four tests (#1, #2, #3, and #4) for each concentration of active agent) using Procaterol HCl in order to investigate the transport of Procaterol cation into and through skin along a concentration gradient. A Franz cell was used at 32° C. using hairless mouse skin as a permeable membrane. 720 corresponds to the average delivery of a 5 wt % Procaterol-HCl concentration, 722 corresponds to the average delivery of a 2.5 wt % Procaterol-HCl concentration, 724 corresponds to the average delivery of a 1 wt % Procaterol-HCl concentration, and 726 corresponds to the average delivery of a 0.5 wt % Procaterol-HCl concentration. […] It can be seen that the amount of Procaterol delivered through the skin increases over time. Further, it can also be seen that the amount of Procaterol delivered increases with increased Procaterol concentration. To deliver a medically effective amount of Procaterol through the skin, the concentration of the Procaterol solution must be equal to or greater than a certain threshold concentration. A sufficient amount of Procaterol dissolved in water was used in this experiment, thus leading to a rather large Procaterol delivery speed. It is therefore possible to deliver Procaterol through the skin, provided that the solution exists in proximity to the surface of the skin.

SMILES: O=C1O[C@H]([C@@H](O)CO)C(O)=C1O[C@H]1O[C@H](CO)[C@@H](O)[C@H](O)[C@H]1O [AA2G, L-Ascorbic acid 2-Glucoside]
- Mobility of ion (AA2G− compared to chloride ions) ([1]; AA2G 300 mM (0.296 mol dm^−3 donor)): 0.83
- Mobility ratio w ([2]; AA2G 0.000059 mol cm^3): 0.1
- Mobility ratio w ([2]; AA2G 0.000148 mol cm^3): 0.4

SMILES: O=C([O-])Cc1ccccc1Nc1c(Cl)cccc1Cl.[Na+] [Diclofenac, monosodium 2-(2-(2,6-dichlorophenylamino)phenyl)acetate]
- Mobility of ion (Diclofenac anion compared to chloride ions) ([1]; 0.032 mol dm^−3 sodium Diclofenac donor): 4.6
- Flux ([3]; 0.003 M sodium Diclofenac): 1.30 μg h^−1 cm^−2
- Amount of Diclofenac delivered ([3]; 0.003 M, time 0 hr): 0.0
- Amount of Diclofenac delivered ([3]; 0.003 M, time 1 hr): 0.0
- Amount of Diclofenac delivered ([3]; 0.003 M, time 3 hr): 2.0
- Amount of Diclofenac delivered ([3]; 0.003 M, time 5 hr): 5.6
- Amount of Diclofenac delivered ([3]; 0.003 M, time 24 hr): 31.1
- Flux ([3]; 0.016 M sodium Diclofenac): 2.21 μg h^−1 cm^−2
- Amount of Diclofenac delivered ([3]; 0.016 M, time 0 hr): 0.0
- Amount of Diclofenac delivered ([3]; 0.016 M, time 1 hr): 0.0
- Amount of Diclofenac delivered ([3]; 0.016 M, time 3 hr): 3.6
- Amount of Diclofenac delivered ([3]; 0.016 M, time 5 hr): 9.8
- Amount of Diclofenac delivered ([3]; 0.016 M, time 24 hr): 53.1
- Flux ([3]; 0.031 M sodium Diclofenac): 4.62 μg h^−1 cm^−2
- Amount of Diclofenac delivered ([3]; 0.031 M, time 0 hr): 0.0
- Amount of Diclofenac delivered ([3]; 0.031 M, time 1 hr): 0.3
- Amount of Diclofenac delivered ([3]; 0.031 M, time 3 hr): 5.4
- Amount of Diclofenac delivered ([3]; 0.031 M, time 5 hr): 12.1
- Amount of Diclofenac delivered ([3]; 0.031 M, time 24 hr): 110.9
- experimental Flux J ([3]; KCl conc 0 %): 4.3 μg h^−1 cm^−2
- experimental Flux J ([3]; KCl conc 0.1 %): 6.2 μg h^−1 cm^−2
- experimental Flux J ([3]; KCl conc 0.5 %): 7.0 μg h^−1 cm^−2
- Mobility ratio w ([2]; Diclofenac 0.0000016 mol cm^−3): 4.6
- Mobility ratio w ([2]; Diclofenac 0.0000032 mol cm^−3 (last line)): 4.6
- Mobility ratio w ([2]; Diclofenac 0.0000032 mol cm^−3 (third line)): 4.6
- Mobility ratio w ([2]; Diclofenac 0.000016 mol cm^−3): 4.6

SMILES: CCC(NC(C)C)C(O)c1ccc(O)c2[nH]c(=O)ccc12 (stereo not shown) [Procaterol HCl, 8-hydroxy-5-[1-hydroxy-2-[(1-methylethyl)amino]butyl]-2(1H)-quinolinone]
- Mobility of ion (Procaterol cation with respect to chloride ions) ([1]; […] Procaterol HCl donor): 0.13
- Flux ([3]; 0.015 M aqueous Procaterol): 0 mg h^−1 cm^−2
- Amount of aqueous Procaterol delivered ([3]; 0.015 M, time 0 hr): 0
- Amount of aqueous Procaterol delivered ([3]; 0.015 M, time 2 hr): 0
- Amount of aqueous Procaterol delivered ([3]; 0.015 M, time 3 hr): 0
- Amount of aqueous Procaterol delivered ([3]; 0.015 M, time 5 hr): 0
- Flux ([3]; 0.03 M aqueous Procaterol): 0.024 mg h^−1 cm^−2
- Amount of aqueous Procaterol delivered ([3]; 0.03 M, time 0 hr): 0
- Amount of aqueous Procaterol delivered ([3]; 0.03 M, time 2 hr): 0
- Amount of aqueous Procaterol delivered ([3]; 0.03 M, time 3 hr): 0
- Amount of aqueous Procaterol delivered ([3]; 0.03 M, time 5 hr): 0.12
- Flux ([3]; 0.06 M aqueous Procaterol): 0.082 mg h^−1 cm^−2
- Amount of aqueous Procaterol delivered ([3]; 0.06 M, time 0 hr): 0
- Amount of aqueous Procaterol delivered ([3]; 0.06 M, time 2 hr): 0.13
- Amount of aqueous Procaterol delivered ([3]; 0.06 M, time 3 hr): 0.22
- Amount of aqueous Procaterol delivered ([3]; 0.06 M, time 5 hr): 0.41
- Flux ([3]; […] aqueous Procaterol): 0.84 mg h^−1 cm^−2
- Amount of aqueous Procaterol delivered ([3]; […], time 0 hr): 0
- Amount of aqueous Procaterol delivered ([3]; […], time 2 hr): 1.53
- Amount of aqueous Procaterol delivered ([3]; […], time 3 hr): 2.47
- Amount of aqueous Procaterol delivered ([3]; […], time 5 hr): 4.20
- Mobility ratio w ([2]; Procaterol 0.000015 mol cm^−3): 0.13
- Mobility ratio w ([2]; Procaterol 0.00003 mol cm^−3): 0.13
- Mobility ratio w ([2]; Procaterol 0.00006 mol cm^−3): 0.13
- Total transmission amount, Ave. ([4]; Test ID 720 (5.0%), 0 hrs.): 0.0
- Total transmission amount, single samples #1-#4 ([4]; Test ID 720 (5.0%), 0 hrs.): 0.0
- Total transmission amount, Ave. ([4]; Test ID 720 (5.0%), 1 hr.): 0.7
- Total transmission amount, Ave. ([4]; Test ID 720 (5.0%), 3 hrs.): 5.3
- Total transmission amount, Ave. ([4]; Test ID 720 (5.0%), 5 hrs.): 10.4
- Total transmission amount, Ave. ([4]; Test ID 720 (5.0%), 8 hrs.): 16.3
- Total transmission amount, Ave. ([4]; Test ID 722 (2.5%), 0 hrs.): 0.0
- Total transmission amount, single samples #1-#4 ([4]; Test ID 722 (2.5%), 0 hrs.): 0.0
- Total transmission amount, Ave. ([4]; Test ID 722 (2.5%), 1 hr.): 0.4
- Total transmission amount, Ave. ([4]; Test ID 722 (2.5%), 3 hrs.): 1.7
- Total transmission amount, Ave. ([4]; Test ID 722 (2.5%), 5 hrs.): 2.8
- Total transmission amount, Ave. ([4]; Test ID 722 (2.5%), 8 hrs.): 4.1
- Total transmission amount, Ave. ([4]; Test ID 724 (1.0%), 0 hrs.): 0.0
- Total transmission amount, single samples #1-#4 ([4]; Test ID 724 (1.0%), 0 hrs.): 0.0
- Total transmission amount, Ave. ([4]; Test ID 724 (1.0%), 1 hr.): 0.0
- Total transmission amount, single samples #1-#4 ([4]; Test ID 724 (1.0%), 1 hr.): 0.0
- Total transmission amount, Ave. ([4]; Test ID 724 (1.0%), 3 hrs.): 0.2
- Total transmission amount, Ave. ([4]; Test ID 724 (1.0%), 5 hrs.): 0.4
- Total transmission amount, Ave. ([4]; Test ID 724 (1.0%), 8 hrs.): 0.7
- Total transmission amount, Ave. ([4]; Test ID 726 (0.5%), 0 hrs.): 0.0
- Total transmission amount, single samples #1-#4 ([4]; Test ID 726 (0.5%), 0 hrs.): 0.0
- Total transmission amount, Ave. ([4]; Test ID 726 (0.5%), 1 hr.): 0.0
- Total transmission amount, single samples #1-#4 ([4]; Test ID 726 (0.5%), 1 hr.): 0.0
- Total transmission amount, Ave. ([4]; Test ID 726 (0.5%), 3 hrs.): 0.2
- Total transmission amount, Ave. ([4]; Test ID 726 (0.5%), 5 hrs.): 0.5
- Total transmission amount, Ave. ([4]; Test ID 726 (0.5%), 8 hrs.): 0.8
